Values of other authors in US8338383B1, “Use of immunomodulators for the treatment of cancer” (priority 2012, dated 2012).

Test system: patients with advanced pancreatic cancer
Conditions: survival from study enrollment to death from any cause

Compound	median Overall Survival [months]	increased median survival versus 5-FU [months]
O=c1[nH]cc(F)c(=O)[nH]1 [5-FU, 5-fluorouracil]	4.2	–
Nc1ccn([C@@H]2O[C@H](CO)[C@@H](O)C2(F)F)c(=O)n1 [gemcitabine, Gemcitabine]	5.7	1.5
